From PubChem BioAssay AID2060895 (Molecular Pharmacology Branch, DTP, NCI, 2025)

Tested on: PDC 899932-113-R3-J6 complex spheroid viability
Test: Anticancer human tumor 899932-113-R3-J6-PDC patient-derived melanoma cell line growth inhibition [RAS]
Conditions: for IC50: curve of first compound; for viability, T/C: stronger effect = lower value
In short: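 Multi-cell-type spheroids: tumor cells plus HUVEC endothelial cells and mesenchymal stem cells. RAS-pathway inhibitors were combined with targeted agents, each dosed in half-log steps down from clinical Cmax, or from 10 microM when Cmax was unknown.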
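For viability, T/C in this document: spheroids exposed to agents for seven days before readout; 100% = DMSO vehicle control wells.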

CCc1c2c(nc3ccc(O)cc13)-c1cc3c(c(=O)n1C2)COC(=O)[C@]3(O)CC + CCn1c(-c2cccnc2C(C)OC)c2c3cc(ccc31)N1CCOC(CC(NC(=O)C(C(C)C)N(C)C(=O)C3(F)CCN(C(=O)C#CC(C)(C)N(C)C)CC3)C(=O)N3CCCC(N3)C(=O)OCC(C)(C)C2)C1
IC50 (second compound 0.000949 µM): 19.5 nM
IC50 (second compound 0.003 µM): 19.9 nM
IC50 (second compound 0.00949 µM): 33.6 nM
IC50 (second compound 0.03 µM): 33.6 nM
IC50 (second compound 0.0949 µM): 15.7 nM
IC50 (second compound 0.3 µM): 17.2 nM
viability, T/C (second compound 0.000949 µM, first compound 0.000949 µM): 93.4%
viability, T/C (second compound 0.000949 µM, first compound 0.003 µM): 72%
viability, T/C (second compound 0.000949 µM, first compound 0.00949 µM): 56.4%
viability, T/C (second compound 0.000949 µM, first compound 0.03 µM): 46.1%
viability, T/C (second compound 0.000949 µM, first compound 0.0949 µM): 39.9%
viability, T/C (second compound 0.000949 µM, first compound 0.3 µM): 32.3%
viability, T/C (second compound 0.003 µM, first compound 0.000949 µM): 95.3%
viability, T/C (second compound 0.003 µM, first compound 0.003 µM): 69.1%
viability, T/C (second compound 0.003 µM, first compound 0.00949 µM): 57.8%
viability, T/C (second compound 0.003 µM, first compound 0.03 µM): 46.7%
viability, T/C (second compound 0.003 µM, first compound 0.0949 µM): 42.2%
viability, T/C (second compound 0.003 µM, first compound 0.3 µM): 31.1%
viability, T/C (second compound 0.00949 µM, first compound 0.000949 µM): 93.8%
viability, T/C (second compound 0.00949 µM, first compound 0.003 µM): 78.3%
viability, T/C (second compound 0.00949 µM, first compound 0.00949 µM): 61.4%
viability, T/C (second compound 0.00949 µM, first compound 0.03 µM): 53.6%
viability, T/C (second compound 0.00949 µM, first compound 0.0949 µM): 39.1%
viability, T/C (second compound 0.00949 µM, first compound 0.3 µM): 30.8%
viability, T/C (second compound 0.03 µM, first compound 0.000949 µM): 93.7%
viability, T/C (second compound 0.03 µM, first compound 0.003 µM): 83.6%
viability, T/C (second compound 0.03 µM, first compound 0.00949 µM): 59.1%
viability, T/C (second compound 0.03 µM, first compound 0.03 µM): 52.7%
viability, T/C (second compound 0.03 µM, first compound 0.0949 µM): 41.9%
viability, T/C (second compound 0.03 µM, first compound 0.3 µM): 29.7%
viability, T/C (second compound 0.0949 µM, first compound 0.000949 µM): 88.3%
viability, T/C (second compound 0.0949 µM, first compound 0.003 µM): 66.8%
viability, T/C (second compound 0.0949 µM, first compound 0.00949 µM): 54.1%
viability, T/C (second compound 0.0949 µM, first compound 0.03 µM): 45.4%
viability, T/C (second compound 0.0949 µM, first compound 0.0949 µM): 39.1%
viability, T/C (second compound 0.0949 µM, first compound 0.3 µM): 31.5%
viability, T/C (second compound 0.3 µM, first compound 0.000949 µM): 71.1%
viability, T/C (second compound 0.3 µM, first compound 0.003 µM): 66.5%
viability, T/C (second compound 0.3 µM, first compound 0.00949 µM): 52.8%
viability, T/C (second compound 0.3 µM, first compound 0.03 µM): 42.9%
viability, T/C (second compound 0.3 µM, first compound 0.0949 µM): 42.8%
viability, T/C (second compound 0.3 µM, first compound 0.3 µM): 32.2%
